System: control human primary myoblasts
Assay: Expression microarray of primary myoblasts transduced with lentivirus carrying DUX4-fl, DUX4-s or GFP
Method: Primary human myoblasts were collected and cultured as previously described (Snider et al., 2010). Primary myoblasts were maintained at or below 70% confluency for proliferation. For differentiation, cells were allowed to reach 95-100% confluency in growth medium. Once confluency was reached, the cells were changed to differentiation medium (F10 media supplemented with 1% horse serum, 10 μg/mL insulin, and 10 μg/mL transferrin, penicillin/streptomycin) and maintained for 4 days. Human RD cells were grown in DMEM in 10% bovine calf serum (Hyclone) and penicillin/streptomycin. The primary myoblasts were transduced with lentivirus carrying DUX-fl, DUX4- or GFP (MOI=15).
Expression microarrays were performed on the transduced cells at 24 hours after transduction as follows. […] Samples were analyzed by Illumina Human Whole Genome microarrays. Probe intensities were corrected, normalized, and summarized by the Lumi package of Bioconductor (Du et al., 2008). Differentially expressed genes were identified by the LIMMA package of Bioconductor (Wettenhall and Smyth, 2004). Gene set enrichment analysis (GSEA) was performed using the Bioconductor GOstats package (Falcon and Gentleman, 2007).

DUX4-fl: full-length DUX4 protein (SEQ ID NO:110), expressed from lentiviral or pCS2 vectors or in vitro translated
LOC284428 expression fc (Refseq XM_208203.5): 8.023 | LOC285697 expression fc (Refseq XM_210642.1): 3.783 | LOC342934 expression fc (Refseq XM_292724.5): 2.988 | LOC340096 expression fc (Refseq XM_293943.2): 7.382 | LOC389633 expression fc (Refseq XM_372030.4): 1.807 | LOC390031 expression fc (Refseq XM_372343.1): 8.331 | LOC390530 fc (Refseq XM_372543.2): −1.104 | LOC391045 expression fc (Refseq XM_372780.3): 2.166 | LOC391092 expression fc (Refseq XM_372792.2): 1.837 | LOC391742 expression fc (Refseq XM_373056.1): 5.733 | LOC391747 expression fc (Refseq XM_373059.2): 2.789 | LOC391761 expression fc (Refseq XM_373073.2): 3.009 | LOC391764 expression fc (Refseq XM_373076.3): 5.821 | LOC391766 expression fc (Refseq XM_373077.2): 5.724 | LOC391767 expression fc (Refseq XM_373078.1): 5.492 | LOC399937 expression fc (Refseq XM_374917.3): 1.841 | LOC399939 expression fc (Refseq XM_374919.3): 6.931 | LOC401860 expression fc (Refseq XM_377445.3): 4.272 | LOC402199 expression fc (Refseq XM_377875.2): 4.392 | LOC646103 expression fc (Refseq XM_377879.3): 4.658 | LOC402207 expression fc (Refseq XM_377884.2): 4.903 | LOC440040 expression fc (Refseq XM_495873.4): 7.534 | FAM90A9 expression fc (Refseq XM_496956.4): 2.248 | FAM90A12 expression fc (Refseq XM_496961.3): 1.774 | LOC441584 expression fc (Refseq XM_497258.1): 7.781 | LOC441019 expression fc (Refseq XM_498969.2, cultured human skeletal muscle): −2.107 | PEG10 expression fc (Refseq XM_499343.2): 1.935 | LOC642362 expression fc (Refseq XM_925891.1): 8.016 | LOC642538 expression fc (Refseq XM_926027.2): 1.792 | LOC653111 expression fc (Refseq XM_926073.2): 3.139 | LOC642843 expression fc (Refseq XM_926241.2): 2.728 | LOC653192 expression fc (Refseq XM_926437.2): 8.228 | LOC653194 expression fc (Refseq XM_926449.1): 3.633 | LOC643731 expression fc (Refseq XM_927019.1): 1.903 | LOC653506 fc (Refseq XM_927769.1): −1.144 | LOC645137 expression fc (Refseq XM_928167.2): 2.323 | fc of LOC653583 (expression array) (Refseq XM_928224.2): −1.02 | LOC645373 expression fc (Refseq XM_928412.1): 2.891 | LOC645558 expression fc (Refseq XM_928577.2): 4.803 | LOC645669 expression fc (Refseq XM_928680.1): 8.202 | LOC653656 expression fc (Refseq XM_928688.3): 7.897 | LOC653657 expression fc (Refseq XM_928697.2): 7.857 | LOC646698 expression fc (Refseq XM_929644.2): 6.012 | LOC646754 expression fc (Refseq XM_929704.2): 5.11 | LOC646914 expression fc (Refseq XM_929877.1): 2.569 | fc of LOC338758 (expression array) (Refseq XM_931359.2): −1.005 | LOC644739 fc (Refseq XM_933679.1): −1.165 | LOC642127 expression fc (Refseq XM_936272.2): 6.112 | LOC642219 expression fc (Refseq XM_936370.2): 4.799 | LOC285299 expression fc (Refseq XM_936463.2): 2.84 | fc of BEXL1 (expression array) (Refseq XM_936467.2): −1.018 | LOC653978 expression fc (Refseq XM_937424.1): 3.554 | LOC646508 expression fc (Refseq XM_937570.1): 2.498 | LOC648533 expression fc (Refseq XM_937587.1): 2.284 | LOC342933 expression fc (Refseq XM_938208.2): 3.752 | PRAMEF17 expression fc (Refseq XM_938420.2): 4.223 | fc of LOC649425 (expression array) (Refseq XM_938508.1): −0.2065 | LOC649563 expression fc (Refseq XM_938635.2): 2.425 | LOC650167 expression fc (Refseq XM_939249.1): 3.363 | LOC654101 expression fc (Refseq XM_939354.1): 5.034 | MGC61598 expression fc (Refseq XM_939432.1): 2.969 | LOC651308 expression fc (Refseq XM_940443.1): 8.169 | ZC3H5 fc (Refseq XM_940903.2): −1.155 | LOC651816 expression fc (Refseq XM_941060.1): 1.836 | LOC652080 expression fc (Refseq XM_941404.1): 1.987 | LOC652349 expression fc (Refseq XM_941777.1): 2.835 | LOC652433 expression fc (Refseq XM_941875.1): 3.022 | LOC651390 expression fc (Refseq XM_942401.1): 1.937 | LOC727846 expression fc (Refseq XM_001126140.1): 2.175 | LOC730278 fc (Refseq XM_001126471.1): −1.092 | PARP10 expression fc (Refseq XM_001127571.1, cultured human skeletal muscle): −2.064 | fc of LOC730996 (expression array) (Refseq XM_001128017.1): −0.2204 | LOC342900 expression fc (Refseq XM_001129035.1): 7.391 | LOC729368 expression fc (Refseq XM_001130065.2): 5.416 | LOC729458 expression fc (Refseq XM_001130308.2): 8.247 | LOC729694 expression fc (Refseq XM_001131061.1): 4.029 | LOC729698 expression fc (Refseq XM_001131072.1): 3.539 | LOC729700 expression fc (Refseq XM_001131081.1): 4.817 | LOC729706 expression fc (Refseq XM_001131091.1): 4.227 | LOC729724 expression fc (Refseq XM_001131132.1): 3.038 | LOC729731 expression fc (Refseq XM_001131140.1): 5.007

— US20140242093A1, “METHODS AND COMPOSITIONS FOR MODULATING THE INNATE IMMUNE RESPONSE AND/OR MYOGENESIS IN A MAMMALIAN SUBJECT” (FRED HUTCHINSON CANCER RESEARCH CENTER, priority 2011, published 2014)
